Measured values: patent US20100203001A1, “PROCESS FOR FORMING DISULFIDE BRIDGES” (APLAGEN GMBH, priority 2007, published 2010)
“Also recorded” adds a separate entry of the source. Where two headings read alike, the source gives them in different places.

Legend:
[1] = tests of the capacity to promote the formation of disulfide bridges; assay type: biochemical
Protocol: The tests were carried out as described previously (see above). The substance tested and the amounts tested are stated in each case.

BB57 = test: cyclization (oxidation) of EPO mimetic peptide BB57 to BB57C in air in water, monitored by HPLC or Ellman's test; assay type: biochemical
EPO mimetic peptide = test: cyclization of an EPO mimetic peptide that can only be cyclized with great difficulty; assay type: biochemical; conditions: 10 mg/ml caffeine
Protocol: Some of the EPO mimetic peptides can only be cyclized with great difficulty. An example is the following peptide:
The yield after approx. 21 h in solution was already >90%.

hair = test: oxidation of hair reduced with ammonium thioglycolate Wave-Lotion, free thiol groups by Ellman's reagent (412 nm); conditions: air, room temperature, 3 days
Protocol: The solution is removed and the hair is then washed 6 times with 400 μl H2O each time.
For determination of the free thiol groups still remaining, after removing the reaction solution the hair is reacted with fEllman's reagent (5,5′-dithiobis(2-nitrobenzoic acid), DTNB). […] The hair samples are put in 200 μl each of 100 mM phosphate buffer, pH 8.0 and 1 mM EDTA, and 300 μl of a 1 mM DTNB solution in the same EDTA-containing buffer. The solution is analyzed after a few minutes in a UV-Vis spectrometer.

human hair = test: oxidation of reduced human hair by heterocyclic compound with metal ions, thiol groups by Ellman's reagent
Protocol: To this end, for each measuring point the disulfide bridges of 5 mg hair were first reduced using ammonium thioglycolate/ammonium thiolactate (commercially available formulations for permanent waves) in order to open them. Subsequently, the reduction solution is removed and the hair was washed with water several times. Then, the hair was subjected to the different oxidation mixtures in order to again close the disulfide bridges. After filtrating these solutions, the amount of thiol groups was determined using the Ellman's reagent. Thereby, a statement on the speed and efficiency of the oxidation step and thus the renewed closure of the disulfide bridges can be made.
In several experiments combinations of different metal additives in place of higher amounts of a single salt component are also used. The amounts in the mixture “artificial tap water” described below are based on the maximum values of the regulation for tap water of the FRG, wherein the following combination of metal ions was used: 0.2 mg/L iron ([…], 5 mg/L zinc (Zn^2+), 2 mg/L copper (Cu^2+) and some hardening components 100 mg/L calcium (Ca^2+) and 50 mg/L magnesium (Mg^2+).

oxytocin, reduced (OxyR) = oxytocin, reduced (OxyR) (Homo sapiens, UniProt P01178); test: cyclization of reduced oxytocin-derived peptide (OxyR) to oxytocin (Oxy) in air, HPLC; assay type: biochemical; conditions: GSSG optionally added with caffeine
Protocol: The reaction mixture was analyzed by HPLC at regular intervals, in order to determine the contents of OxyR and the product oxytocin (Oxy).

[2] = single agent in water (10 mg/ml caffeine or 5 mg/ml GSSG)
[3] = in combination with artificial tap water salt mixture

O=C1NC(=O)C(=NO)C(=O)N1 [violuric acid]
capacity to promote the formation of disulfide bridges [1]: Active

Cn1ccc(=O)[nH]c1=O [1-methyl-uracil]
capacity to promote the formation of disulfide bridges [1]: good activity

Cc1cc(O)nc(C(C)C)n1 [2-isopropyl-6-methyl-4-pyrimidinol]
capacity to promote the formation of disulfide bridges [1]: active

Cc1cc(O)nc(O)n1 [2,4-dihydroxy-6-methylpyrimidine]
capacity to promote the formation of disulfide bridges [1]: active

O=S(=O)([O-])[O-].[Fe+2] [iron(II) sulfate]
accelerating effect on the cyclisation of BB57 (BB57): no activity

Oc1cc(O)ncn1 [4,6-dihydroxy-pyrimidine]
capacity to promote the formation of disulfide bridges [1]: active

Cn1c(=O)c2c(ncn2C)n(C)c1=O [caffeine]
reaction time until complete conversion (BB57): about 10 h | time of cyclisation (BB57): about an hour; also recorded: shortened | time until complete conversion (BB57): about 15 h | time until conversion is quantitative (BB57): ten | time until oxidation is completed (BB57): approx. 24 h | time until cyclization successful (EPO mimetic peptide): ≤ 24 h | oxidation of the thiol groups of reduced hair (hair; combination 10 mg/ml caffeine and 5 mg/ml GSSG): almost quantitative oxidation of the thiol groups | oxidation of the thiol groups of reduced hair (hair; [2]): partial oxidation of the thiol groups | strength as catalysator on hair (human hair; comparison with alloxan): weaker compared to alloxan | duration of the reaction compared with alloxan (human hair; [3]): takes longer | oxidation of reduced hair (human hair; [3]): completely oxidize the hair

O=C(O)CN(CCN(CC(=O)O)CC(=O)O)CC(=O)O [EDTA, ethylenediaminetetraacetic acid]
effect of complexing agent on the strong effect of the iron ions (BB57; alloxan plus iron ions (3 μM) with two equivalents EDTA): slightly weakened

glutathione in oxidized form [GSSG]
conversion of the peptide (BB57): only takes place slowly | influence on rate or yield (oxytocin, reduced (OxyR)): no influence on rate or yield | oxidation of the thiol groups of reduced hair (hair; [2]): partial oxidation of the thiol groups

NC(=O)c1cnccn1 [pyrazine amide]
capacity to promote the formation of disulfide bridges [1]: do not have the capacity to promote the formation of disulfide bridges

O=C(O)c1cc(O)nc(O)n1 [uracil-6-carboxylic acid]
capacity to promote the formation of disulfide bridges [1]: active

Nc1cc(N2CCCCC2)nc(N)[n+]1[O-] [minoxidil, 6-(1-piperidinyl)-2,4-pyrimidinediamine-3-oxide]
time until oxidation is completed (BB57; 0.7 mg BB57 and 0.3 mg substance in 1 ml distilled water, in the air, HPLC): approx. 29 h

O=c1ccc(=O)[nH][nH]1 [1,2-dihydro-3,6-pyridazinedione]
capacity to promote the formation of disulfide bridges [1]: active

O=C1NC(=O)C(=O)C(=O)N1 [alloxan, alloxan monohydrate]
effect of iron(III) ions on oxidation (BB57): accelerating effect | reaction time (BB57): less than an hour | time until almost completely cyclised (BB57): about 2 h | reverse oxidation of the thiols in hair (human hair; 0.1% alloxan solution with low amounts of iron(III) ions, after 10 minutes): almost complete reverse oxidation | advantage due to the addition of salt (human hair; alloxan with iron(III) chloride or artificial tap water, control after 10 minutes): small advantage | oxidation of reduced hair (human hair; [3]): completely oxidize the hair | capacity to promote the formation of disulfide bridges [1]: Active

Nc1cnccn1 [aminopyrazine]
capacity to promote the formation of disulfide bridges [1]: do not have the capacity to promote the formation of disulfide bridges

Nc1nc(N)nc(N)n1 [melamine]
capacity to promote the formation of disulfide bridges [1]: do not have the capacity to promote the formation of disulfide bridges

Nc1ccnc(N)n1 [2,4-diaminopyrimidine]
capacity to promote the formation of disulfide bridges [1]: do not have the capacity to promote the formation of disulfide bridges

O=C1CC(=O)NC(=O)N1 [barbituric acid]
capacity to promote the formation of disulfide bridges [1]: Active

O=C(O)c1cnccn1 [pyrazine-carboxylic acid]
capacity to promote the formation of disulfide bridges [1]: do not have the capacity to promote the formation of disulfide bridges

Cc1cc(O)nc(C)n1 [2,4-dimethyl-6-hydroxypyrimidine]
capacity to promote the formation of disulfide bridges [1]: active

Cc1nc(O)cc(O)n1 [4,6-dihydroxy-2-methylpyrimidine]
capacity to promote the formation of disulfide bridges [1]: active

potassium hexacyanoferrate
effect of stable metal ion complex on cyclisation by alloxan (BB57; alloxan plus potassium hexacyanoferrate(II) or (III) (30 μM), Ellman's reagent): accelerating effect
